From patent US9278958B2, “Anti-cancer compounds” (KATHOLIEKE UNIVERSITEIT LEUVEN, priority 2012, dated 2016)
Read-outs that look alike come from different tables or passages of the source.

Assays:
[1] = tested on: HeLa cervix carcinoma cells; test: Cytostatic assay, HeLa; format: cell-based, human; settings: Homo sapiens
Method: (§1) To each well of a 96-well microtiter plate were added 5-7.5×10^4 cells and a given amount of the test compound. The cells were allowed to proliferate for 48 h to 96 h (depending on the nature of the cell line) at 37° C. in a humidified CO2-controlled atmosphere. At the end of the incubation period, the cells were counted in a Coulter Counter (Coulter Electronics Ltd, Harpenden Herts, United Kingdom).

CEM cells = test: Cytostatic assay, CEM; format: cell-based; settings: for IC50: Homo sapiens, CCRF-CEM; for Ratio (tumor cell selectivity): ratio IC50 HeLa / IC50 CEM
Method: as §1

HepG2C3A hepatoma cells = test: Cytostatic assay, HepG2C3A; format: cell-based; settings: Homo sapiens, HepG2/C3A; Table 4
Method: as §1

[2] = tested on: Raji, human B-lymphoma cells; test: Cytostatic assay, Raji; format: cell-based; settings: Table 2
Method: as §1

MT-4 cells = test: Cytostatic assay, MT-4; format: cell-based; settings: Homo sapiens, MT4; Table 2
Method: as §1

[3] = tested on: MCF-7 mammary carcinoma cells; test: Cytostatic assay, MCF-7; format: cell-based; settings: Homo sapiens, MCF7; Table 3
Method: as §1

PLC/PRF/5 hepatoma cells = test: Cytostatic assay, PLC/PRF/5; format: cell-based; settings: Homo sapiens, Table 4
Method: as §1

MT-2 cells = test: Cytostatic assay, MT-2; format: cell-based; settings: Homo sapiens, MT2; Table 2
Method: as §1

U87 glioma cells = test: Cytostatic assay, U87; format: cell-based; settings: Homo sapiens, U-87 MG; Table 3
Method: as §1

[4] = tested on: HT29 colorectal carcinoma cells; test: Cytostatic assay, HT29; format: cell-based; settings: Homo sapiens, HT-29; Table 3
Method: as §1

[5] = tested on: HEL embryonic lung fibroblast cells; test: Cytostatic assay, HEL; format: cell-based; settings: Homo sapiens, Table 3
Method: as §1

Huh-7 hepatoma cells = test: Cytostatic assay, Huh-7; format: cell-based; settings: Homo sapiens, Table 4
Method: as §1

[6] = tested on: DU145 (UZ) prostate cancer cells; test: Cytostatic assay, DU145 (UZ); format: cell-based; settings: Homo sapiens, DU-145; Table 4
Method: as §1

[7] = tested on: FM3A mammary carcinoma cells; test: Cytostatic assay, FM3A; format: cell-based, murine; settings: Mus musculus, Table 3
Method: as §1

[8] = tested on: 22Rv1 (UZ) prostate cancer cells; test: Cytostatic assay, 22Rv1 (UZ); format: cell-based; settings: Homo sapiens, Table 4
Method: as §1

HUT-78 cells = test: Cytostatic assay, HUT-78; format: cell-based; settings: Homo sapiens, HuT78; Table 2
Method: as §1

[9] = tested on: U937, human monocytic cells; test: Cytostatic assay, U937; format: cell-based; settings: U-937, Table 2
Method: as §1

[10] = tested on: Caki-1 kidney carcinoma cells; test: Cytostatic assay, Caki-1; format: cell-based; settings: Homo sapiens, Table 3
Method: as §1

[11] = tested on: PC3 (rega) prostate cancer cells; test: Cytostatic assay, PC3 (rega); format: cell-based; settings: Table 4
Method: as §1

[12] = tested on: HL60, human leukemia cells; test: Cytostatic assay, HL-60; format: cell-based; settings: Table 2
Method: as §1

[13] = tested on: THP-1, human monocytic cells; test: Cytostatic assay, THP-1; format: cell-based; settings: Table 2
Method: as §1

[14] = tested on: OST TK- osteosarcoma cells; test: Cytostatic assay, OST TK-; format: cell-based; settings: Homo sapiens; Table 3
Method: as §1

Sup T1 cells = test: Cytostatic assay, Sup T1; format: cell-based; settings: Homo sapiens, Table 2, read-out: Cytostatic activity (μM) Sup T 1
Method: as §1

[15] = tested on: LNCaP (UZ) prostate cancer cells; test: Cytostatic assay, LNCaP (UZ); format: cell-based; settings: Homo sapiens, Table 4
Method: as §1

C8166 cells = test: Cytostatic assay, C8166; format: cell-based; settings: Homo sapiens, Table 2
Method: as §1

[16] = tested on: 293T embryonic kidney cells; test: Cytostatic assay, 293T; format: cell-based; settings: Homo sapiens, HEK-293T; Table 3
Method: as §1

[17] = tested on: PNT1A (UZ) prostate cells; test: Cytostatic assay, PNT1A (UZ); format: cell-based; settings: Homo sapiens, Table 4
Method: as §1

[18] = tested on: PC-3 (UZ) prostate cancer cells; test: Cytostatic assay, PC-3 (UZ); format: cell-based; settings: Table 4
Method: as §1

BPH-1 (UZ) = test: Cytostatic assay, BPH-1 (UZ); format: cell-based; settings: Homo sapiens, Table 4
Method: as §1

Molt4/C8 cells = test: Cytostatic assay, Molt4/C8; format: cell-based; settings: Table 2
Method: as §1

[19] = tested on: Caki-2 kidney carcinoma cells; test: Cytostatic assay, Caki-2; format: cell-based; settings: Homo sapiens, Table 3
Method: as §1

[20] = tested on: BAEC aortic endothelial cells; test: Cytostatic assay, BAEC; format: cell-based, bovine; settings: Bos taurus, Table 3
Method: as §1

[21] = HeLa cells, Table 7, 5-arylthiomethyl-substituted 2-amino-3-carboxymethylthiophenes, read-out: IC50 (μM) HeLa
[22] = CEM cells, Table 7, 5-arylthiomethyl-substituted 2-amino-3-carboxymethylthiophenes, read-out: IC50 (μM) CEM
[23] = HeLa cells, Table 6, 5-alkyl-substituted 2-aminothiophenes, read-out: IC50 (μM) HeLa
[24] = CEM cells, Table 6, 5-alkyl-substituted 2-aminothiophenes, read-out: IC50 (μM) CEM
[25] = Table 3, read-out: Cytostatic activity (μM) Hela
[26] = Table 1a, read-out: IC50 μM (CEM)
[27] = Table 2, read-out: Cytostatic activity (μM) CEM

Structure (SMILES): COC(=O)c1cc(CSc2ccc(OC)cc2)sc1N [TJ130, Methyl 2-amino-5-((4-methoxyphenylthio)methyl)thiophene-3-carboxylate]
- IC50 [1, 21]: 88 µM
- IC50 ([1]; Table 1b, read-out: IC50 (μM) (HeLa)): 88 ± 10 µM
- IC50 (CEM cells; [22]): 3.9 µM
- IC50 (CEM cells; Table 1b, read-out: IC50 (μM) (CEM)): 3.9 ± 1.4 µM
- Ratio (tumor cell selectivity) (CEM cells; Table 7): 23

Structure (SMILES): CCc1cc(C(=O)OC)c(N)s1 [TJ157, Methyl 2-amino-5-ethylthiophene-3-carboxylate]
- IC50 [1, 23]: 180 µM
- IC50 (CEM cells; [24]): 175 µM
- Ratio (tumor cell selectivity) (CEM cells; Table 6): 1

Structure (SMILES): COC(=O)c1cc(CCCCl)sc1N [TJ168D, Methyl 2-amino-5-(3-chloropropyl)thiophene-3-carboxylate]
- IC50 [1, 23]: 150 µM
- IC50 (CEM cells; [24]): 26 µM
- Ratio (tumor cell selectivity) (CEM cells; Table 6): 6

Structure (SMILES): COC(=O)c1cc(CCCSc2ccc(OC)cc2)sc1N [TJ169, Methyl 2-amino-5-(3-(4-methoxyphenylthio)propyl)thiophene-3-carboxylate]
- IC50 [1, 21]: 59 µM
- IC50 (CEM cells; [22]): 0.97 µM
- Ratio (tumor cell selectivity) (CEM cells; Table 7): 61

Structure (SMILES): COC(=O)c1cc(CCCSC2CCCCC2)sc1N [TJ170, Methyl 2-amino-5-(3-(cyclohexylthio)propyl)thiophene-3-carboxylate]
- IC50 [1, 21]: 55 µM
- IC50 (CEM cells; [22]): 0.57 µM
- Ratio (tumor cell selectivity) (CEM cells; Table 7): 96

Structure (SMILES): COC(=O)c1cc(CSC2CCCC2)sc1N [TJ179, Methyl 2-amino-5-(cyclopentylthiomethyl)thiophene-3-carboxylate]
- IC50 [1, 21]: 80 µM
- IC50 (CEM cells; [22]): 1.8 µM
- Ratio (tumor cell selectivity) (CEM cells; Table 7): 44

Structure (SMILES): COC(=O)c1cc(CSc2ccc(-c3ccccc3)cc2)sc1N [TJ184, Methyl 2-amino-5-((biphenyl-4-ylthio)methyl)thiophene-3-carboxylate]
- IC50 [1, 21]: 55 µM
- IC50 (CEM cells; [22]): 1.2 µM
- Ratio (tumor cell selectivity) (CEM cells; Table 7): 46

Structure (SMILES): CCc1ccc(SCc2cc(C(=O)OC)c(N)s2)cc1 [TJ185, Methyl 2-amino-5-((4-ethylphenylthio)methyl)thiophene-3-carboxylate]
- IC50 [1, 21]: 49 µM
- IC50 (CEM cells; [22]): 0.34 µM
- Ratio (tumor cell selectivity) (CEM cells; Table 7): 144

Structure (SMILES): COC(=O)c1cc(CSc2ccc(C(C)C)cc2)sc1N [TJ186, Methyl 2-amino-5-((4-isopropylphenylthio)methyl)thiophene-3-carboxylate]
- IC50 [1, 21]: 46 µM
- IC50 (CEM cells; [22]): 0.46 µM
- Ratio (tumor cell selectivity) (CEM cells; Table 7): 100

Structure (SMILES): COC(=O)c1cc(CSCCc2ccccc2)sc1N [TJ187, Methyl 2-amino-5-(phenethylthiomethyl)thiophene-3-carboxylate]
- IC50 [1, 21]: 74 µM
- IC50 (CEM cells; [22]): 1.2 µM
- Ratio (tumor cell selectivity) (CEM cells; Table 7): 62

Structure (SMILES): CCCc1cc(C(=O)OC)c(N)s1 [TJ190, Methyl 2-amino-5-propylthiophene-3-carboxylate]
- IC50 [1, 23]: 61 µM
- IC50 (CEM cells; [24]): 6.9 µM
- Ratio (tumor cell selectivity) (CEM cells; Table 6): 9

Structure (SMILES): COC(=O)c1c(N)sc(CCc2cc(OC)ccc2OC)c1C [TR599, 2-Amino-5-[2-(2,5-dimethoxy-phenyl)-ethyl]-4-methyl-thiophene-3-carboxylic acid methyl ester]
- IC50 (HepG2C3A hepatoma cells): 34 ± 22 µM
- IC50 [2]: 49 ± 13 µM
- IC50 (MT-4 cells): 58 ± 21 µM
- IC50 [3]: 11 ± 8.5 µM
- IC50 (PLC/PRF/5 hepatoma cells): 36 ± 2.8 µM
- IC50 (MT-2 cells): 37 ± 29 µM
- IC50 (U87 glioma cells): 41 ± 4.9 µM
- IC50 [4]: 47 ± 2.1 µM
- IC50 [5]: 46 ± 3.5 µM
- IC50 (Huh-7 hepatoma cells): 52 ± 7.8 µM
- IC50 [6]: 35 ± 16 µM
- IC50 [7]: 48 ± 3.5 µM
- IC50 [8]: 28 ± 19 µM
- IC50 [1, 25]: 38 ± 11 µM
- IC50 (HUT-78 cells): 21 ± 1.4 µM
- IC50 [9]: 68 ± 0.7 µM
- IC50 [10]: 57 ± 38 µM
- IC50 [11]: 24 ± 12 µM
- IC50 [12]: 18 ± 4.9 µM
- IC50 [13]: 9 ± 0.6 µM
- IC50 [14]: 34 ± 23 µM
- IC50 (Sup T1 cells): 32 ± 15 µM
- IC50 [15]: 8.7 ± 4.7 µM
- IC50 (C8166 cells): 110 ± 31 µM
- IC50 [16]: 52 ± 2.1 µM
- IC50 [17]: 46 ± 2.1 µM
- IC50 [18]: 25 ± 5.7 µM
- IC50 (BPH-1 (UZ)): 43 ± 3.5 µM
- IC50 (CEM cells; [26]): 44 µM
- IC50 (CEM cells; [27]): 44 µM
- IC50 (Molt4/C8 cells): 47 ± 16 µM
- IC50 [19]: 52 ± 17 µM
- IC50 [20]: 52 ± 46 µM

Structure (SMILES): COC(=O)c1cc(-c2cc(OC)ccc2OC)sc1N [TR601, 2-Amino-5-(2,5-dimethoxy-phenyl)-thiophene-3-carboxylic acid methyl ester]
- IC50 (HepG2C3A hepatoma cells): 22 ± 18 µM
- IC50 [2]: 45 ± 11 µM
- IC50 (MT-4 cells): 50 ± 25 µM
- IC50 [3]: 44 ± 28 µM
- IC50 (PLC/PRF/5 hepatoma cells): 26 ± 0.71 µM
- IC50 (MT-2 cells): 14 ± 2.8 µM
- IC50 (U87 glioma cells): 25 µM
- IC50 [4]: 42 µM
- IC50 [5]: 17 ± 5.7 µM
- IC50 (Huh-7 hepatoma cells): 49 ± 19 µM
- IC50 [6]: 37 ± 2.1 µM
- IC50 [7]: 59 ± 11 µM
- IC50 [8]: 11 ± 4.8 µM
- IC50 [1, 25]: 39 ± 9.2 µM
- IC50 (HUT-78 cells): 109 ± 82 µM
- IC50 [9]: 85 ± 2.8 µM
- IC50 [10]: 8.8 ± 3.1 µM
- IC50 [11]: 23 ± 14 µM
- IC50 [12]: 21 µM
- IC50 [13]: 25 ± 5.7 µM
- IC50 [14]: 32 ± 18 µM
- IC50 (Sup T1 cells): 38 ± 25 µM
- IC50 [15]: 21 ± 8.5 µM
- IC50 (C8166 cells): 102 ± 1.4 µM
- IC50 [16]: 43 ± 16 µM
- IC50 [17]: 38 ± 5.7 µM
- IC50 [18]: 25 µM
- IC50 (BPH-1 (UZ)): 31 µM
- IC50 (CEM cells; [26]): 42 µM
- IC50 (CEM cells; [27]): 42 ± 1.4 µM
- IC50 (Molt4/C8 cells): 28 ± 6 µM
- IC50 [19]: 24 ± 9.2 µM
- IC50 [20]: 26 ± 7.1 µM
